The text below walks through data of patent publication US20250296938A1, “Compounds that Interact with the Ras Superfamily for the Treatment of Cancers, Inflammatory Diseases, Rasopathies, and Fibrotic Disease” (SHY Therapeutics, LLC, priority 2018, published 2025).

In one assay the test system is MAPK phosphorylation. The assay is described as follows: MAPK cell-based phosphorylation assay (ELISA or Western), PANC-1. As to conditions: Homo sapiens, 10 μM. The procedure:
Cell lines: Tumor-derived pancreatic cancer cell line PANC-1 was purchased from ATCC and were and grown in DMEM-High Glucose supplemented with penicillin (100 U/mL), streptomycin (100 μg/mL), and 10% heat-inactivated FBS at 37° C. in a humidified incubator with 5% CO2.
Method: Cells were plated at 7500 cells/well density in a 96-well plate, allowed 3 hours to adhere to the plate, then starved in DMEM plus 0.5% FBS overnight. The small molecules to be tested were added to the cells in the final concentration of 10 μM in the presence of 0.3% DMSO for 6 hours incubation at 37° C. For IC50 value determination, serial dilutions of compounds were added to cells under the same conditions. Next, cells were stimulated with 1.5 ng/mL EGF for 15 minutes followed by cell fixation with 4% formaldehyde in PBS at room temperature for 20 minutes. Cell-direct ELISA determined phosphorylation level of MAPK.
Cell-direct ELISA: For each well, cells were permeabilized with 0.1% PBS-Triton X-100, quenched with 0.06% H2O2 in 0.1% PBS-Triton X-100, and probed with anti-phospho-MAPK antibodies (R&D Systems) followed by HRP-conjugated secondary antibody (Jackson Immunoresearch, West Grove, PA). Next, a 50 μM solution of the fluorescent substrate AmpliFlu Red (Sigma) was added and incubated at RT for 20 minutes. At the end of the incubation time, phosphorylation level of MAPK was determined by measuring fluorescence at 595 nm using SpectraMax M3 plate reader (Molecular Devices).
Cell lines: Human NSCLC cells NCI-H1975 and NCI-H1299, and tumor-derived pancreatic cancer cell lines Panc-1, MIA-PaCa-2, and BxPC3, were all purchased from American Type Culture Collection and grown in complete RPMI medium (BxPC3, NCI-H1975 and NCI-H1299) or DMEM-High Glucose (Panc1 and MIA-PaCa-2), supplemented with penicillin (100 U/mL), streptomycin (100 μg/mL), and 10% heat-inactivated FBS at 37° C. in a humidified incubator with 5% CO2.
(§1) Method: Cells were plated at 350000 cells/well density in a 12-well plate, allowed 3 hours to adhere to the plate, then starved in the appropriate medium in the presence of 0.5% FBS overnight. The small molecules to be tested were added to the cells in the final concentration of 10 μM in the presence of 0.3% DMSO for 6 hours incubation at 37° C. For IC50 value determination, serial dilutions of compounds were added to cells under the same conditions. Next, cells were stimulated with 1.5 ng/ml EGF for 15 minutes then cells were lysed with lysis buffer containing 1% Triton X-100, EDTA, and Halt™ Protease & Phosphatase Inhibitor Cocktail (Thermo Scientific). Protein concentration was assessed by BCA protein assay (Thermo Scientific). Phosphorylation level of MAPK was determined by western blot.
(§2) Western blot protocol: Equal amounts of protein (15-50 μg) were separated by SDS-PAGE and transferred to nitrocellulose membranes (Invitrogen by Thermo Fisher Scientific). The membrane was stained with Ponceau S Stain (Boston BioProducts) to verify uniform protein loading. Membranes were blocked with 10% milk and phosphorylation levels of MAPK were assessed by incubating overnight at 4° C. with anti-phospho-p44/42 (Thr202/Tyr204) antibody (Cell Signaling) followed by HRP-conjugated secondary antibody (Jackson Immunoresearch, West Grove, PA). Bands were incubated in Amersham ECL Prime Western Blotting Detection Reagent (GE Healthcare) and visualized using the ChemiDoc MP imaging system (Bio-Rad).
(An ELISA detects its analyte on a solid surface through an enzyme-linked reagent.)

The test system of the next assay is AKT phosphorylation. The assay can be described thus: Western AKT cell-based phosphorylation assay, PANC-1. As to conditions: Homo sapiens. Here is the method: Human tumor-derived pancreatic cancer cell line Panc-1 was purchased from American Type Culture Collection and grown in complete DMEM-High Glucose supplemented with penicillin (100 U/mL), streptomycin (100 μg/mL), and 10% heat-inactivated FBS at 37° C. in a humidified incubator with 5% CO2.
as §1, with “C.” for “C. For IC50 value determination, serial dilutions of compounds were added to cells under the same conditions.”, “Akt” for “MAPK”
as §2, with “Akt” for “MAPK”, “anti-phospho-Akt (Ser473)” for “anti-phospho-p44/42 (Thr202/Tyr204)”

Setting [1] is: 6 hours, EGF stimulation, PANC-1.

As to `COCCc1ccc(Oc2nc(-c3ccccn3)nc(O)c2OC)cc1` [drawing 450], the inhibition at 10 µM in the assay with MAPK phosphorylation (setting [1]) and in the assay with AKT phosphorylation (setting [1]) was 0% in each case.
As for `COc1c(O)nc(-c2ccccn2)nc1Oc1ccccc1` [drawing 451], the inhibition at 10 µM with MAPK phosphorylation (setting [1]) and with AKT phosphorylation (setting [1]) was 0% in each case.
Take `O=C(c1nc(-c2ccccn2)nc(O)c1O)N1CCc2ccccc2C1` [drawing 452]: the inhibition at 10 µM in the assay on MAPK phosphorylation (setting [1]) and in the assay with AKT phosphorylation (setting [1]) was 0% each time.
Regarding `O=C(c1nc(-c2ccccn2)nc(O)c1O)N1CCOCC1` [drawing 453], the inhibition at 10 µM in the assay with MAPK phosphorylation (setting [1]) and with AKT phosphorylation (setting [1]) was 0% each time.
Regarding `CN(Cc1ccccc1)C(=O)c1nc(-c2ccccn2)nc(O)c1O` [drawing 454], the inhibition at 10 µM in the assay on MAPK phosphorylation (setting [1]) and in the assay on AKT phosphorylation (setting [1]) was 0% in each case.
Take `O=C(NCc1ccccc1)c1nc(-c2ccccn2)nc(O)c1O` [drawing 455]: the inhibition at 10 µM was 1 to 25% in the assay with MAPK phosphorylation (setting [1]) and 0% in the assay with AKT phosphorylation (setting [1]).
Regarding `O=C(c1nc(-c2ccccn2)nc(O)c1O)N1CCCC1` [drawing 456], the inhibition at 10 µM in the assay on MAPK phosphorylation (setting [1]) and in the assay with AKT phosphorylation (setting [1]) was 0% throughout.
Regarding `O=C(NC1CCCC1)c1nc(-c2ccccn2)nc(O)c1O` [drawing 457], the inhibition at 10 µM in the assay with MAPK phosphorylation (setting [1]) and in the assay with AKT phosphorylation (setting [1]) was 0% each time.
Take `CC(C)CN(C)C(=O)c1nc(-c2ccccn2)nc(O)c1O` [drawing 458]: the inhibition at 10 µM in the assay with MAPK phosphorylation (setting [1]) and with AKT phosphorylation (setting [1]) was 0% each time.
Turning to `CC(C)CNC(=O)c1nc(-c2ccccn2)nc(O)c1O` [drawing 459], the inhibition at 10 µM with MAPK phosphorylation (setting [1]) and in the assay on AKT phosphorylation (setting [1]) was 0% in each case.
`COCCN(C)C(=O)c1nc(-c2ccccn2)nc(O)c1O` [drawing 460]: the inhibition at 10 µM in the assay with MAPK phosphorylation (setting [1]) and in the assay on AKT phosphorylation (setting [1]) was 0% in each case.
Regarding `O=C(NC1CCC1)c1nc(-c2ccccn2)nc(O)c1O` [drawing 461], the inhibition at 10 µM in the assay on MAPK phosphorylation (setting [1]) and in the assay with AKT phosphorylation (setting [1]) was 0% in each case.
As to `CC(C)NC(=O)c1nc(-c2nccn2C)nc(O)c1O` [drawing 462], the inhibition at 10 µM with MAPK phosphorylation (setting [1]) and in the assay with AKT phosphorylation (setting [1]) was 0% in each case.
As to `CCN(CC)C(=O)c1nc(-c2nccn2C)nc(O)c1O` [drawing 463], the inhibition at 10 µM with MAPK phosphorylation (setting [1]) and with AKT phosphorylation (setting [1]) was 0% in each case.
With `Cn1ccnc1-c1nc(O)c(O)c(C(=O)N2CCCC2)n1` [drawing 464], the inhibition at 10 µM in the assay with MAPK phosphorylation (setting [1]) and in the assay on AKT phosphorylation (setting [1]) was 0% each time.
On to `Cn1ccnc1-c1nc(O)c(O)c(C(=O)NC2CCCC2)n1` [drawing 465], for which the inhibition at 10 µM in the assay on MAPK phosphorylation (setting [1]) and in the assay on AKT phosphorylation (setting [1]) was 0% each time.
Consider `Cn1ccnc1-c1nc(O)c(O)c(C(=O)N2CCCCC2)n1` [drawing 466], for which the inhibition at 10 µM in the assay on MAPK phosphorylation (setting [1]) and with AKT phosphorylation (setting [1]) was 0% in each case.
Take `Cn1ccnc1-c1nc(O)c(O)c(C(=O)NC2CCC2)n1` [drawing 467]: the inhibition at 10 µM in the assay on MAPK phosphorylation (setting [1]) and in the assay on AKT phosphorylation (setting [1]) was 0% in each case.
As for `COC(=O)c1nc(-c2nccn2C)nc(O)c1O` [drawing 468], the inhibition at 10 µM with MAPK phosphorylation (setting [1]) and with AKT phosphorylation (setting [1]) was 0% throughout.
Consider `COc1nc(-c2ccccn2)nc(Nc2cnn(C)c2)c1OC` [drawing 469], for which the inhibition at 10 µM in the assay with MAPK phosphorylation (setting [1]) and in the assay on AKT phosphorylation (setting [1]) was 0% each time.
As for `COCCn1cc(Nc2nc(-c3ccccn3)nc(OC)c2OC)cn1` [drawing 470], the inhibition at 10 µM with MAPK phosphorylation (setting [1]) and in the assay on AKT phosphorylation (setting [1]) was 0% each time.
Turning to `COC1CCN(c2nc(-c3nccn3C)nn3cc(-c4ccccc4)c(-c4ccccc4)c23)C1` (centres unmarked) [drawing 471], the figures for the inhibition at 10 µM in the assay on MAPK phosphorylation (setting [1]) and in the assay on AKT phosphorylation (setting [1]) were 51 to 75% and 0%, respectively.
Turning to `COc1c(O)nc(-c2ccccn2)nc1Oc1ccc(C(=O)N(C)C)cc1` [drawing 479], the inhibition at 10 µM in the assay with MAPK phosphorylation (PANC-1 (Table 4C)) and in the assay with AKT phosphorylation (PANC-1 (Table 4C)) was 0% throughout.
On to `COc1c(O)nc(-c2ccccn2)nc1Nc1ccccc1` [drawing 480], for which the inhibition at 10 µM in the assay with MAPK phosphorylation (PANC-1 (Table 4C)) and in the assay on AKT phosphorylation (PANC-1 (Table 4C)) was 0% each time.
On to `CCn1cc(Nc2nc(-c3ccccn3)nc(O)c2OC)cn1` [drawing 481], for which the inhibition at 10 µM in the assay with MAPK phosphorylation (PANC-1 (Table 4C)) and in the assay on AKT phosphorylation (PANC-1 (Table 4C)) was 0% throughout.
Take `CCOc1cccc(Nc2nc(-c3ccccn3)nc(O)c2OC)c1` [drawing 482]: the inhibition at 10 µM with MAPK phosphorylation (PANC-1 (Table 4C)) and with AKT phosphorylation (PANC-1 (Table 4C)) was 0% throughout.
Take `COc1cccc(-c2sc3nc(-c4nccn4C)nc(NC4CCC(OC)C4)c3c2-c2ccccc2)c1F` (centres unmarked) [drawing 483]: the inhibition at 10 µM with MAPK phosphorylation (PANC-1 (Table 4C)) and with AKT phosphorylation (PANC-1 (Table 4C)) was 76 to 100% throughout.
As for `COc1cccc(-c2sc3nc(-c4nccn4C)nc(N[C@@H]4CC[C@H](OC)C4)c3c2-c2ccccc2)c1F` [drawing 484], the inhibition at 10 µM in the assay with MAPK phosphorylation (PANC-1 (Table 4C)) and in the assay with AKT phosphorylation (PANC-1 (Table 4C)) was 76 to 100% each time.
As to `COC1CCC(Nc2nc(-c3nccn3C)nc3sc(-c4cccc(O)c4F)c(-c4ccccc4)c23)C1` (centres unmarked) [drawing 485], the inhibition at 10 µM in the assay with MAPK phosphorylation (PANC-1 (Table 4C)) is 76 to 100%; in the assay with AKT phosphorylation (PANC-1 (Table 4C)), 0%.
For `COc1c(F)cccc1-c1sc2nc(-c3nccn3C)nc(NC3CCC(OC)C3)c2c1-c1ccccc1` (centres unmarked) [drawing 486] the same measures were 76 to 100% and 76 to 100%.
Consider `COc1c(F)cccc1-c1sc2nc(-c3nccn3C)nc(N[C@@H]3CC[C@H](OC)C3)c2c1-c1ccccc1` [drawing 487], for which the inhibition at 10 µM in the assay with MAPK phosphorylation (PANC-1 (Table 4C)) and in the assay on AKT phosphorylation (PANC-1 (Table 4C)) was 76 to 100% in each case.
Turning to `COC1CCC(Nc2nc(-c3nccn3C)nc3sc(-c4cccc5[nH]ncc45)c(-c4ccccc4)c23)C1` (centres unmarked) [drawing 488], the inhibition at 10 µM in the assay on MAPK phosphorylation (PANC-1 (Table 4C)) and in the assay with AKT phosphorylation (PANC-1 (Table 4C)) was 76 to 100% throughout.
In the case of `CO[C@H]1CC[C@@H](Nc2nc(-c3nccn3C)nc3sc(-c4cccc5[nH]ncc45)c(-c4ccccc4)c23)C1` [drawing 489], the inhibition at 10 µM is 76 to 100% in the assay with MAPK phosphorylation (PANC-1 (Table 4C)) and 0% in the assay with AKT phosphorylation (PANC-1 (Table 4C)).
For `COc1cccc(-c2sc3nc(-c4nccn4C)nc(N4CCC(OC)C4)c3c2-c2ccccc2)c1F` (centres unmarked) [drawing 490] the same measures were 76 to 100% and 76 to 100%.
For `COc1cccc(-c2sc3nc(-c4nccn4C)nc(N[C@H]4C[C@@H](OC)C4)c3c2-c2ccccc2)c1F` [drawing 491] the same measures were 76 to 100% and 76 to 100%.
For `CO[C@H]1C[C@@H](Nc2nc(-c3nccn3C)nc3sc(-c4cnn(C)c4)c(-c4ccccc4)c23)C1` [drawing 492], in that order: 76 to 100% and 26 to 50%.
For the compound `COc1cccc(-c2sc3nc(-c4nccn4C)nc(NC4CCC(OC)C4)c3c2C)c1F` (centres unmarked) [drawing 493], the inhibition at 10 µM with MAPK phosphorylation (PANC-1 (Table 4C)) was 76 to 100%; in the assay with AKT phosphorylation (PANC-1 (Table 4C)), 0%.

Broadly, the inhibition is the change of the read-out against control, counted positive when it falls. The low end stands for a weak effect, the high end for a strong effect.
